From US6448062B1, “Simultaneous cleaning and decontaminating compositions and methods” (priority 1998, dated 2002)
Like-named read-outs stand apart in the source and are kept apart here.

Assays:
[1] = test system: Mycobacterium bovis (ATCC 35743); format: cell-based
Azocasein [2] = test: In-situ protease activity assay: azocasein hydrolysis (Abs390) in H2O2/enzyme solutions; details: for Absorbance (normalized with dilution factor) of hydrolyzed Azocasein solution at 390 nm: pH 8.5, 23° C., 1% azocasein; for Abs390 hydrolyzed azocasein solution: human chymotrypsin experiment, 23° C.
Description: Solutions of 7.5%^w/v H2O2 at various pH levels were prepared by adjusting the pH of 35%^w/w H2O2 solution (Degussa) with 10 mM K3PO4 in a volumetric flask in the presence of K2HPO4 (phosphate buffer, PB). The solution was diluted with 10 mM KH2PO4 solution of the same pH. […] Azocasein powder was added to the H2O2/Alcalase® mixed solutions to yield 0.4%^w/v azocasein. After 30 min at 23° C., 5 ml azocasein solution was mixed with 5 ml 10%^w/v TCA solution. Precipitates were removed after 15 min by filtration, and the supernatant Abs390 was measured.
One half hour prior to various time points (listed in Tables 5a-d), azocasein powder was added to the solution in an amount of 0.4% of the total solution weight. Abs390 of the solution was measured as in Example 4 except that the supernatant was diluted 6-7 fold to avoid saturation of the UV spectrophotometer.
An additional experiment employing the same method was conducted with human chymotrypsin.

[3] = 25 minutes contact at 20° C.; cited from earlier work
[4] = test system: spores of Bacillus subtilis (ATCC #19659); test: AOAC test for Sporicidal Activity of Disinfectants, porcelain penicylinders, no organic soil load; format: cell-based; details: for Results: positive penicylinders: exposure 4 hours
Azocasein [5] = test: Azocasein hydrolysis (Abs390) by human trypsin or chymotrypsin in PAA/H2O2; details: 23° C.
Description: The activity for the PAA/H2O2 solution alone as a control is also given. […] A volume of 4.05 ml of 10 mM K3PO4 buffer was combined with 0.45 ml initial trypsin buffer solution and 45 mg Azocasein to prepare the trypsin/phosphate buffer solution for the test.
A 0.22%^w/v PAA/1.17%^w/v H2O2 solution was prepared using a dilution of Degussa's 4.9%^w/w PAA/26.6%^w/w H2O2 in a volumetric flask. A volume of 4.05 ml of the latter solution was mixed with 0.45 ml initial trypsin/phosphate buffer solution and 45 mg Azocasein powder.
At 2.8 and 7 h, 1.5 ml sample aliquots were removed from the above three solutions and reacted with 1.5 ml of 10%^w/v trichloroacetic acid stop reagent. After incubating for 15-20 min, the solutions were filtered using Whatman #3 filter paper with a syringe and a Gelman 13 mm filter holder. The filtered solutions were then analyzed with a Shimadzu UV-visible 1601 spectrophotometer Abs390.
An additional example with human chymotrypsin follows. The solutions were similarly prepared as above.

Azocasein [6] = test: Enzyme activity in 0.368% PAA/2% H2O2, modified Novo azocasein method
Description: In a 100 ml volumetric flask, a solution was prepared using 7.5 ml of 4.9%^w/w (Degussa) PAA, 1 ml enzyme, and diluted with 0.2 M tris(hydroxymethyl)aminomethane to control the pH at 8.5 to yield a final concentration of 0.368%^w/v PAA/2%^w/v H2O2. […] A timer was started as soon as the combinations of enzymes and PAA/H2O2 were mixed. At periodic intervals, aliquots of the enzyme/PAA/H2O2 solutions were removed and diluted 64 times to react with the 0.6%^w/v Azocasein substrate solution in a water bath at the modified temperature of 30° C. for 30 min. After stopping the reaction with 10% TCA and filtering the precipitate, the supernatants were analyzed on a spectrophotometer at 390 nm.

OO [6% H2O2 pH 1.8, hydrogen peroxide]
% Reduction ([1]; contact time 5 min): 98.65%
log10 Reduction ([1]; contact time 5 min): 1.87
% Reduction ([1]; contact time 10 min): 99.25%
log10 Reduction ([1]; contact time 10 min): 2.13
% Reduction ([1]; contact time 15 min): 99.51%
log10 Reduction ([1]; contact time 15 min): 2.31
% Reduction ([1]; contact time 20 min): 99.38%
log10 Reduction ([1]; contact time 20 min): 2.21

c1ccc2[nH]nnc2c1 [Benzotriazole, 1,2,3-benzotriazole]
Absorbance (normalized with dilution factor) of hydrolyzed Azocasein solution at 390 nm (Azocasein [2]; 7.4 mM Na3PO4, 0.5 h): 0.0986
Absorbance (normalized with dilution factor) of hydrolyzed Azocasein solution at 390 nm (Azocasein [2]; 7.4 mM Na3PO4, 4.5 h): 0.1536

CC(=O)OO [PAA, peracetic acid]
minimum effective concentration for high-level disinfection [3]: 0.05 %w/w

OO [Sample 10, hydrogen peroxide]
Results: positive penicylinders [4]: 0 positive

OO [Sample 11, hydrogen peroxide]
Results: positive penicylinders [4]: 0 positive

OO [Solutions of 7.5% H2O2 alone, hydrogen peroxide]
exposure at which sporicidal (no positive penicylinders) [4]: ≤ 4 h

Chymotrypsin
Absorbance at 390 nm of hydrolyzed Azocasein solution (Azocasein [5]; pH 7.25, 2 h): 2.716
Absorbance at 390 nm of hydrolyzed Azocasein solution (Azocasein [5]; pH 7.25, 4 h): 3.674
Absorbance Ratio of Chymotrypsin/Azocasein solutions with and without 7.5% H2O2 (Azocasein [2]; 2 h): 0.308
Absorbance Ratio of Chymotrypsin/Azocasein solutions with and without 7.5% H2O2 (Azocasein [2]; 4 h): 0.316
Abs390 hydrolyzed azocasein solution (Azocasein [2]; pH 7.75, 2 h): 2.541
Abs390 hydrolyzed azocasein solution (Azocasein [2]; pH 7.75, 4 h): 3.653

Trypsin: human trypsin (Sigma)
Absorbance at 390 nm of hydrolyzed Azocasein solution (Azocasein [5]; pH 7.5, 1% azocasein, 2.8 h): 1.4254
Absorbance at 390 nm of hydrolyzed Azocasein solution (Azocasein [5]; pH 7.5, 1% azocasein, 7 h): 1.5588

B1: Alcalase ® 2.5 L: commercial subtilisin A liquid concentrate, 2.5 Anson units per gram (Novo Nordisk) (protein, UniProt P00780 106-379, looked up)
Subtilisin Carlsberg: AQTVPYGIPLIKADKVQAQGFKGANVKVAVLDTGIQASHPDLNVVGGASFVAGEAYNTDGNGHGTHVAGTVAALDNTTGVLGVAPSVSLYAVKVLNSSGSGSYSGIVSGIEWATTNGMDVINMSLGGASGSTAMKQAVDNAYAKGVVVVAAAGNSGSSGNTNTIGYPAKYDSVIAVGAVDSNSNRASFSSVGAELEVMAPGAGVYSTYPTNTYATLNGTSMASPHVAGAAALILSKHPNLSASQVRNRLSSTATYLGSSFYYGKGLINVEAAAQ
modifications: commercial liquid concentrate
decrease in activity (Azocasein [6]; 0.368% PAA/2% H2O2, after 7.5 hours): 13%
Absorbance (proteolytic, 390 nm) (Azocasein [6]; 0.368% PAA/2% H2O2, pH 8.5, 0 h): 0.6534
Absorbance (proteolytic, 390 nm) (Azocasein [6]; 0.368% PAA/2% H2O2, pH 8.5, 3.2 h): 0.6417
Absorbance (proteolytic, 390 nm) (Azocasein [6]; 0.368% PAA/2% H2O2, pH 8.5, 6.5 h): 0.6729
Absorbance (proteolytic, 390 nm) (Azocasein [6]; 0.368% PAA/2% H2O2, pH 8.5, 7.5 h): 0.5689
